Measured values from the SangsterLogP compilation.

Test: method code SF-HPLC, from DOI: 10.1021/jm4016729, PMID: 24422550
Conditions: pH 7.4

| logD | Structure (SMILES) |
| --- | --- |
| 2.4 | O=C(NC1C2CC3CC1CC(O)(C3)C2)c1sc(C2CCCO2)nc1C1CC1 (configuration not stated) |
| 1.5 | Cc1nc(C2=COC2)c(C(=O)NC2C3CC4CC2C(O)(C4)C3)s1 (configuration not stated) |
